Data reported in paper PMC11003488 (Journal of Enzyme Inhibition and Medicinal Chemistry, 2023).

What was measured:
CCRF-CEM = assay: NCI-60 SRB growth inhibition, one-dose and five-dose; format: cell-based; settings: Homo sapiens, read-out: percent growth inhibition
HL-60(TB) = assay: cells; format: cell-based; settings: Homo sapiens, HL-60, read-out: percent growth inhibition
RPMI-8226 = assay: NCI-60 SRB growth inhibition, one-dose and five-dose; format: cell-based; settings: Homo sapiens, RPMI-8226, read-out: percent growth inhibition
A549/ATCC = assay: as above; format: cell-based; settings: Homo sapiens, A549, read-out: percent growth inhibition
HOP-92 = assay: as above; format: cell-based; settings: Homo sapiens, HOP-92, read-out: percent growth inhibition
NCI-H226 = assay: as above; format: cell-based; settings: Homo sapiens, NCI-H226, read-out: percent growth inhibition
NCI-H460 = assay: as above; format: cell-based; settings: Homo sapiens, NCI-H460, read-out: percent growth inhibition
COLO 205 = assay: as above; format: cell-based; settings: Homo sapiens, COLO 205, read-out: percent growth inhibition
HCT-116 = assay: as above; format: cell-based; settings: Homo sapiens, HCT-116, read-out: percent growth inhibition
HCT-15 = assay: as above; format: cell-based; settings: Homo sapiens, HCT-15, read-out: percent growth inhibition
HT29 = assay: as above; format: cell-based; settings: Homo sapiens, HT-29, read-out: percent growth inhibition
KM12 = assay: as above; format: cell-based; settings: Homo sapiens, KM12, read-out: percent growth inhibition
SW-620 = assay: as above; format: cell-based; settings: Homo sapiens, SW-620, read-out: percent growth inhibition
SF-268 = assay: as above; format: cell-based; settings: Homo sapiens, SF-268, read-out: percent growth inhibition
SNB-19 = assay: as above; format: cell-based; settings: Homo sapiens, SNB-19, read-out: percent growth inhibition
SNB-75 = assay: as above; format: cell-based; settings: Homo sapiens, SNB-75, read-out: percent growth inhibition
U251 = assay: as above; format: cell-based; settings: Homo sapiens, U-251, read-out: percent growth inhibition
MALME-3M = assay: as above; format: cell-based; settings: Homo sapiens, read-out: percent growth inhibition
M14 = assay: as above; format: cell-based; settings: Homo sapiens, M14, read-out: percent growth inhibition
MDA-MB-435 = assay: as above; format: cell-based; settings: Homo sapiens, MDA-MB-435, read-out: percent growth inhibition
SK-MEL-5 = assay: as above; format: cell-based; settings: Homo sapiens, SK-MEL-5, read-out: percent growth inhibition
UACC-62 = assay: as above; format: cell-based; settings: Homo sapiens, UACC-62, read-out: percent growth inhibition
IGROV1 = assay: as above; format: cell-based; settings: Homo sapiens, IGROV-1, read-out: percent growth inhibition
OVCAR-3 = assay: as above; format: cell-based; settings: Homo sapiens, OVCAR-3, read-out: percent growth inhibition
OVCAR-4 = assay: as above; format: cell-based; settings: Homo sapiens, OVCAR-4, read-out: percent growth inhibition
OVCAR-5 = assay: as above; format: cell-based; settings: Homo sapiens, OVCAR-5, read-out: percent growth inhibition
OVCAR-8 = assay: as above; format: cell-based; settings: Homo sapiens, OVCAR-8, read-out: percent growth inhibition
NCI/ADR-RES = assay: as above; format: cell-based; settings: Homo sapiens, read-out: percent growth inhibition
786-0 = assay: as above; format: cell-based; settings: Homo sapiens, 786-0, read-out: percent growth inhibition
A498 = assay: as above; format: cell-based; settings: Homo sapiens, A498, read-out: percent growth inhibition
ACHN = assay: as above; format: cell-based; settings: Homo sapiens, read-out: percent growth inhibition
CAKI-1 = assay: as above; format: cell-based; settings: Homo sapiens, CAKI-1, read-out: percent growth inhibition
SN12C = assay: as above; format: cell-based; settings: Homo sapiens, read-out: percent growth inhibition
TK-10 = assay: as above; format: cell-based; settings: Homo sapiens, TK-10, read-out: percent growth inhibition
DU-145 = assay: as above; format: cell-based; settings: Homo sapiens, DU-145, read-out: percent growth inhibition
MCF7 = assay: as above; format: cell-based; settings: Homo sapiens, MCF7, read-out: percent growth inhibition
HS 578 T = assay: as above; format: cell-based; settings: Homo sapiens, read-out: percent growth inhibition
BT-549 = assay: as above; format: cell-based; settings: Homo sapiens, BT-549, read-out: percent growth inhibition
T-47D = assay: as above; format: cell-based; settings: Homo sapiens, T47D, read-out: percent growth inhibition
MDA-MB-468 = assay: as above; format: cell-based; settings: Homo sapiens, MDA-MB-468, read-out: percent growth inhibition
[1] = tested on: NCI 60-cell line panel (full panel); assay: NCI-60 SRB growth inhibition, full panel mean / MG-MID; format: cell-based, human; settings: mean over NCI-60 panel; single dose 10 µM
SR = assay: NCI-60 SRB growth inhibition, one-dose and five-dose; format: cell-based; settings: Homo sapiens, read-out: percent growth inhibition

## CC(=O)Nc1ccc(CNc2cccc(C(=O)/C=C/c3c[nH]cn3)c2)cc1 [Compound 5l, (E)-N-(4-(((3–(3-(1H-imidazol-4-yl)acryloyl)phenyl)amino)methyl)phenyl)acetamide]
CCRF-CEM
  inhibition at 10 µM: 98%
HL-60(TB)
  inhibition at 10 µM: 65.2%
RPMI-8226
  inhibition at 10 µM: 38%
A549/ATCC
  inhibition at 10 µM: 7.54%
HOP-92
  inhibition at 10 µM: 12.3%
NCI-H226
  inhibition at 10 µM: 21.7%
NCI-H460
  inhibition at 10 µM: 4.86%
COLO 205
  inhibition at 10 µM: -8.23%
HCT-116
  inhibition at 10 µM: 29.4%
HCT-15
  inhibition at 10 µM: 14.3%
HT29
  inhibition at 10 µM: 8.22%
KM12
  inhibition at 10 µM: 43.6%
SW-620
  inhibition at 10 µM: 24.8%
SF-268
  inhibition at 10 µM: 19.4%
SNB-19
  inhibition at 10 µM: 26.6%
SNB-75
  inhibition at 10 µM: 11.7%
U251
  inhibition at 10 µM: 48.3%
MALME-3M
  inhibition at 10 µM: 26.4%
M14
  inhibition at 10 µM: 13.5%
MDA-MB-435
  inhibition at 10 µM: 11%
SK-MEL-5
  inhibition at 10 µM: 16%
UACC-62
  inhibition at 10 µM: 34%
IGROV1
  inhibition at 10 µM: 8.09%
OVCAR-3
  inhibition at 10 µM: 33.8%
OVCAR-4
  inhibition at 10 µM: 17.3%
OVCAR-5
  inhibition at 10 µM: 5.08%
OVCAR-8
  inhibition at 10 µM: 8.86%
NCI/ADR-RES
  inhibition at 10 µM: -1.58%
786-0
  inhibition at 10 µM: 11.6%
A498
  inhibition at 10 µM: 11.1%
ACHN
  inhibition at 10 µM: 15.4%
CAKI-1
  inhibition at 10 µM: 12.4%
SN12C
  inhibition at 10 µM: 19.8%
TK-10
  inhibition at 10 µM: 12.9%
DU-145
  inhibition at 10 µM: 11.1%
MCF7
  inhibition at 10 µM: 81.8%
HS 578 T
  inhibition at 10 µM: 7.6%
BT-549
  inhibition at 10 µM: 34.9%
T-47D
  inhibition at 10 µM: 56.9%
MDA-MB-468
  inhibition at 10 µM: 84%
[1]
  Full panel Mean GI %: 24.10%

## O=C(/C=C/c1c[nH]cn1)c1cccc(NCc2ccc3oc(=O)ccc3c2)c1 [Compound 5n, (E)-6-(((3–(3-(1H-imidazol-4-yl)acryloyl)phenyl)amino)methyl)-2H-chromen-2-one]
CCRF-CEM
  inhibition at 10 µM: 62.1%
HL-60(TB)
  inhibition at 10 µM: 85.4%
RPMI-8226
  inhibition at 10 µM: 86.9%
SR
  inhibition at 10 µM: 98.1%
A549/ATCC
  inhibition at 10 µM: 25.6%
HOP-92
  inhibition at 10 µM: 25.8%
NCI-H226
  inhibition at 10 µM: 28.2%
NCI-H460
  inhibition at 10 µM: 23.4%
COLO 205
  inhibition at 10 µM: 29.2%
HCT-116
  inhibition at 10 µM: 58.1%
HCT-15
  inhibition at 10 µM: 33.9%
HT29
  inhibition at 10 µM: 63.2%
KM12
  inhibition at 10 µM: 25.1%
SW-620
  inhibition at 10 µM: 31.8%
SF-268
  inhibition at 10 µM: 10.9%
SNB-19
  inhibition at 10 µM: 25.7%
U251
  inhibition at 10 µM: 68.2%
MALME-3M
  inhibition at 10 µM: 37.8%
M14
  inhibition at 10 µM: 24.5%
MDA-MB-435
  inhibition at 10 µM: 14.5%
SK-MEL-5
  inhibition at 10 µM: 30.6%
UACC-62
  inhibition at 10 µM: 45.2%
IGROV1
  inhibition at 10 µM: 16.6%
OVCAR-3
  inhibition at 10 µM: 13.8%
OVCAR-4
  inhibition at 10 µM: 39.2%
OVCAR-5
  inhibition at 10 µM: 10.4%
OVCAR-8
  inhibition at 10 µM: 32.5%
NCI/ADR-RES
  inhibition at 10 µM: 10.6%
786-0
  inhibition at 10 µM: 31.8%
A498
  inhibition at 10 µM: 4.82%
ACHN
  inhibition at 10 µM: 24.8%
CAKI-1
  inhibition at 10 µM: 8.01%
SN12C
  inhibition at 10 µM: 29.8%
TK-10
  inhibition at 10 µM: 30%
DU-145
  inhibition at 10 µM: 20.9%
MCF7
  inhibition at 10 µM: 90.1%
HS 578 T
  inhibition at 10 µM: 13.6%
BT-549
  inhibition at 10 µM: 22.9%
T-47D
  inhibition at 10 µM: 54%
MDA-MB-468
  inhibition at 10 µM: 83.2%
[1]
  Full panel Mean GI %: 37.53%

## CC(=O)Nc1ccc(/C=C/C(=O)c2cccc(NCc3ccc4oc(=O)ccc4c3)c2)cc1 [Compound 5k, (E)-N-(4–(3-oxo-3–(3-(((2-oxo-2H-chromen-6-yl)methyl)amino)phenyl)prop-1-en-1-yl)phenyl)acetamide]
CCRF-CEM
  inhibition at 10 µM: 87.9%
HL-60(TB)
  inhibition at 10 µM: 59%
RPMI-8226
  inhibition at 10 µM: 80.5%
A549/ATCC
  inhibition at 10 µM: 21.5%
HOP-92
  inhibition at 10 µM: 3.27%
NCI-H226
  inhibition at 10 µM: 35.7%
NCI-H460
  inhibition at 10 µM: 22.7%
COLO 205
  inhibition at 10 µM: -13.2%
HCT-116
  inhibition at 10 µM: 78.8%
HCT-15
  inhibition at 10 µM: 50.7%
HT29
  inhibition at 10 µM: 15.6%
KM12
  inhibition at 10 µM: 34.4%
SW-620
  inhibition at 10 µM: 52.2%
SF-268
  inhibition at 10 µM: 18.2%
SNB-19
  inhibition at 10 µM: 38.8%
SNB-75
  inhibition at 10 µM: 25.4%
U251
  inhibition at 10 µM: 49%
MALME-3M
  inhibition at 10 µM: 37.8%
M14
  inhibition at 10 µM: 30.6%
MDA-MB-435
  inhibition at 10 µM: 22.1%
SK-MEL-5
  inhibition at 10 µM: 76.3%
UACC-62
  inhibition at 10 µM: 67.5%
IGROV1
  inhibition at 10 µM: 23.3%
OVCAR-3
  inhibition at 10 µM: 41.7%
OVCAR-4
  inhibition at 10 µM: 43.9%
OVCAR-5
  inhibition at 10 µM: 16.8%
OVCAR-8
  inhibition at 10 µM: 34.9%
NCI/ADR-RES
  inhibition at 10 µM: 68.9%
786-0
  inhibition at 10 µM: 24.2%
A498
  inhibition at 10 µM: 20.4%
ACHN
  inhibition at 10 µM: 34.7%
CAKI-1
  inhibition at 10 µM: 37.7%
SN12C
  inhibition at 10 µM: 29.5%
TK-10
  inhibition at 10 µM: 25.8%
DU-145
  inhibition at 10 µM: 18.3%
MCF7
  inhibition at 10 µM: 73.6%
HS 578 T
  inhibition at 10 µM: 22.1%
BT-549
  inhibition at 10 µM: 55.8%
T-47D
  inhibition at 10 µM: 66%
MDA-MB-468
  inhibition at 10 µM: 72.9%
[1]
  Full panel Mean GI %: 39.00%
